In patent US8940497B2, “Enzyme regulating ether lipid signaling pathways” (The Scripps Research Institute, priority 2006, dated 2015):

System: background 2-thioacetyl MAGE hydrolyzing activity in membrane proteomes
Assay: Background 2-thioacetyl MAGE hydrolyzing activity in membrane proteomes
Format: biochemical
Conditions: FIG. 14
Method: KIAA1363-transfected cell lines were used for substrate-based enzyme activity assays. Membrane proteomes were adjusted to 0.5 mg/ml in 50 mM tris pH 7.4 buffer containing 5 mM CHAPS detergent. Immediately prior to the assay, 5,5′-dithiobis-(2-nitrobenzoic acid) (DTNB, Sigma) was added at 0.5 mM to the membrane proteome to prepare the Assay Buffer. For analysis of inhibitors, 1 ul of a 50× inhibitor solution in DMSO was added to 48 ul of Assay Buffer and preincubated for 20 min at RT. The substrate 2-thioacetyl MAGE (Cayman Chemical) was prepared by evaporating off the original solvent under nitrogen and redissolving the residue in DMSO. 1 ul of 5 mM 2-thioacetyl MAGE stock is added to each assay well to begin the assay. Absorbance is determined at A405 nm.
The background 2-thioacetyl MAGE hydrolyzing activity in membrane proteomes that is not inhibited by AS-115 is inhibited by the broad serine protease inhibitor PMSF (FIG. 14). The IC50 of AS-115 was measured using the 2-thioacetyl MAGE substrate-based assay with Flag-KIAA1363/293T cell membrane proteome (FIG. 15).

O=S(=O)(F)Cc1ccccc1 [PMSF, reference compound]
Background 2-thioacetyl MAGE hydrolyzing activity: inhibited
